Where two headings read alike, the source gives them in different places.
Assays:
[1] = in vitro; conditions: dog, microsomes, pH 7.47
[2] = In vivo pharmacokinetic test, drug concentration in blood plasma by LC-MS/MS; parameters: species or system SD rats; conditions: for Drug concentration in blood plasma / concentration at 0.25 h / concentration at 0.5 h / concentration at 1 h / concentration at 8 h / concentration at 24 h / concentration at 0.08 h / concentration at 2 h / concentration at 4 h: SD rats; for Drug concentration in blood plasma / concentration at 24 h: 24 h; for concentration at 0.25 h / concentration at 0.5 h / concentration at 1 h / concentration at 8 h / concentration at 24 h / concentration at 0.08 h / concentration at 2 h / concentration at 4 h / AUC(0-t) / Cmax / AUC(0-inf) / clearance / MRT inf / Vd / Vd/F: SD; for concentration at 0.25 h / concentration at 0.5 h / concentration at 1 h / concentration at 8 h / concentration at 24 h / concentration at 0.08 h / concentration at 2 h / concentration at 4 h / AUC(0-t) / Cmax / AUC(0-inf) / clearance / MRT inf / Vd / Vd/F / Tmax: rat, plasma; for HL_Lambda_z / Cl—F—pred / F / AUC(0-t) / Cmax / AUC(0-inf) / clearance / MRT inf / Vd / Vd/F / Tmax: male SD rats; for AUC(0-inf): read-out: AUCINF—pred; for clearance: read-out: Cl—pred (converted); for MRT inf: read-out: MRTINF—pred; for Vd: read-out: Vz—pred; for Vd/F: read-out: Vz—F—pred
Experimental: 2. Test animal: SD rats, which are 284-304 g before the test, and bought from Shanghai Xipuer-Bikai laboratory animal Co., Ltd. with production license No. SCXK (Hu) 2013-0016, and laboratory animal certificate Nos. 2008001658223 and 2008001658296.
2.85 mg of compound LL-01 is weighed, and then put into a glass bottle; 0.687 mL of DMSO is added into the glass bottle, and ultrasonic treatment is carried out for 2 min; next, 2.062 mL of Solutol HS 15 is added thereto, and ultrasonic treatment is carried out for 4 min; and then 10.995 mL of PBS is added thereto, and ultrasonic treatment is carried out for 8 min after eddying. This test substance is numbered 20160324-RW-01, 12.74 mg of compound LL-01 is weighed, and then put into a glass bottle; 0.614 mL of DMSO is added into the glass bottle, and ultrasonic treatment is carried out for 2 min; next, 1.843 mL of Solutol HS 15 is added thereto, and ultrasonic treatment is carried out for 4 min; and then 9.830 mL of PBS is added thereto, and ultrasonic treatment is carried out for 8 min after eddying. This test substance is numbered 20160324-RW-02,
The dosage of intravenous administration is 1 mg/kg, while the dosage of oral administration is 10 mg/kg. A night of fasting is required before administration, and feeding should be carried out 4 hours later after administration.
Blood is collected (about 150-200 uL) at every time points of 0.083 (only vein), 0.25, 0.5, 1, 2, 4, 8, and 24 hours after administration through orbital venous plexus puncture into EDTA-K2 (20%, and 2 μL) anticoagulant tubes, respectively; the blood samples are centrifuged 8 min at 6000 rpm in 1 h (placed on wet ice before being centrifuged), and the supernatant, namely blood plasma is put into −20° C. low-temperature conservation for LC-MS/MS analysis later.
The content of compound LL-01 in SD rat blood plasma is detected by use of LC-MS/MS method.
Computer program Microsoft Office Excel 2007 (Microsoft, USA) is used for data processing, and drawing. A statistical moment method of WinNolin 6.4 processing software is used to calculate pharmacokinetic parameters.

[3] = po, 10 mg/kg, oral 10 mg/kg, Mean
[4] = po, 10 mg/kg, oral 10 mg/kg, animal 201M
[5] = po, 10 mg/kg, oral 10 mg/kg, animal 202M
[6] = po, 10 mg/kg, oral 10 mg/kg, animal 203M
[7] = single intravenous 1 mg/kg, animal 101M
[8] = single oral 10 mg/kg, animal 201M
[9] = single oral 10 mg/kg, animal 202M
[10] = single oral 10 mg/kg, animal 203M
[11] = male, iv, 1 mg/kg, intravenous 1 mg/kg, Mean
[12] = male, iv, 1 mg/kg, intravenous 1 mg/kg, animal 101M
[13] = male, iv, 1 mg/kg, intravenous 1 mg/kg, animal 102M
[14] = male, iv, 1 mg/kg, intravenous 1 mg/kg, animal 103M
[15] = male, iv, 1 mg/kg, single intravenous 1 mg/kg, Mean
[16] = male, iv, 1 mg/kg, single intravenous 1 mg/kg, animal 101M
[17] = male, iv, 1 mg/kg, single intravenous 1 mg/kg, animal 102M
[18] = male, iv, 1 mg/kg, single intravenous 1 mg/kg, animal 103M
[19] = male, po, 10 mg/kg, oral 10 mg/kg, Mean
[20] = male, po, 10 mg/kg, oral 10 mg/kg, animal 201M
[21] = male, po, 10 mg/kg, oral 10 mg/kg, animal 202M
[22] = male, po, 10 mg/kg, oral 10 mg/kg, animal 203M
[23] = male, po, 10 mg/kg, single oral 10 mg/kg, Mean
[24] = male, po, 10 mg/kg, single oral 10 mg/kg, animal 201M
[25] = male, po, 10 mg/kg, single oral 10 mg/kg, animal 202M
[26] = male, po, 10 mg/kg, single oral 10 mg/kg, animal 203M

With `CCOc1cccc(Nc2nn(C)c3c2Cc2cc(OCC)c(OCC(N)=O)cc2-3)c1` [LL-01] the half-life at 1 µM [1] was 0.412 h, the microsomal CLint at 1 µM [1] was 56 µL/min/mg and the “Drug concentration in blood plasma” value ([2]; intravenous 1 mg/kg, animal 101M) was “BLQ”. The “Drug concentration in blood plasma” value ([2]; intravenous 1 mg/kg, animal 102M) was “BLQ”, the “Drug concentration in blood plasma” value ([2]; intravenous 1 mg/kg, animal 103M) was “BLQ” and the concentration at 0.25 h [2, 3] was 280 ng/mL. It also gave a concentration at 0.25 h [2, 4] of 159 ng/mL, a concentration at 0.25 h [2, 5] of 466 ng/mL and a concentration at 0.25 h [2, 6] of 216 ng/mL. The concentration at 0.5 h [2, 3] was 558 ng/mL, the concentration at 0.5 h [2, 4] was 374 ng/mL and the concentration at 0.5 h [2, 5] was 959 ng/mL. It also gave a concentration at 0.5 h [2, 6] of 339 ng/mL, a concentration at 1 h [2, 3] of 917 ng/mL and a concentration at 1 h [2, 4] of 869 ng/mL. The concentration at 1 h [2, 5] was 1100 ng/mL, the concentration at 1 h [2, 6] was 778 ng/mL and the concentration at 8 h [2, 3] was 604 ng/mL. It also gave a concentration at 8 h [2, 5] of 916 ng/mL, a concentration at 8 h [2, 6] of 446 ng/mL and a concentration at 24 h [2, 3] of 26.9 ng/mL. For the same compound, the concentration at 24 h [2, 4] was 46.8 ng/mL, the concentration at 24 h [2, 5] was 17.4 ng/mL and the concentration at 24 h [2, 6] was 16.6 ng/mL. For the same compound, the HL_Lambda_z ([2]; single intravenous 1 mg/kg, Mean) was 1.00 h, the HL_Lambda_z [2, 7] was 1.06 h and the HL_Lambda_z ([2]; single intravenous 1 mg/kg, animal 102M) was 1.00 h. The HL_Lambda_z ([2]; single intravenous 1 mg/kg, animal 103M) was 0.94 h, the “Cl—F—pred” value ([2]; single oral 10 mg/kg, Mean) was 14.3 mL/min/kg and the F ([2]; single oral 10 mg/kg, Mean) was 41.02%. For the same compound, the HL_Lambda_z ([2]; single oral 10 mg/kg, Mean) was 3.60 h, the “Cl—F—pred” value [2, 8] was 15.2 mL/min/kg and the F [2, 8] was 35.12%. For the same compound, the HL_Lambda_z [2, 8] was 4.35 h, the “Cl—F—pred” value [2, 9] was 9.33 mL/min/kg and the F [2, 9] was 58.28%. The HL_Lambda_z [2, 9] was 2.95 h, the “Cl—F—pred” value [2, 10] was 18.3 mL/min/kg and the F [2, 10] was 29.66%. The HL_Lambda_z [2, 10] was 3.50 h, the concentration at 0.08 h [2, 11] was 2600 ng/mL and the concentration at 0.08 h [2, 12] was 2720 ng/mL. It also gave a concentration at 0.08 h [2, 13] of 2400 ng/mL, a concentration at 0.08 h [2, 14] of 2690 ng/mL and a concentration at 0.25 h [2, 11] of 1950 ng/mL. For the same compound, the concentration at 0.25 h [2, 12] was 2020 ng/mL, the concentration at 0.25 h [2, 13] was 1920 ng/mL and the concentration at 0.25 h [2, 14] was 1910 ng/mL. It also gave a concentration at 0.5 h [2, 11] of 1630 ng/mL, a concentration at 0.5 h [2, 12] of 1760 ng/mL and a concentration at 0.5 h [2, 13] of 1390 ng/mL. It also gave a concentration at 0.5 h [2, 14] of 1720 ng/mL, a concentration at 1 h [2, 11] of 884 ng/mL and a concentration at 1 h [2, 12] of 876 ng/mL. For the same compound, the concentration at 1 h [2, 13] was 842 ng/mL, the concentration at 1 h [2, 14] was 934 ng/mL and the concentration at 2 h [2, 11] was 428 ng/mL. It also gave a concentration at 2 h [2, 12] of 398 ng/mL, a concentration at 2 h [2, 13] of 372 ng/mL and a concentration at 2 h [2, 14] of 512 ng/mL. It also gave a concentration at 4 h [2, 11] of 82.5 ng/mL, a concentration at 4 h [2, 12] of 87.6 ng/mL and a concentration at 4 h [2, 13] of 67.1 ng/mL. For the same compound, the concentration at 4 h [2, 14] was 92.8 ng/mL, the concentration at 8 h [2, 11] was 7.8 ng/mL and the concentration at 8 h [2, 12] was 8.6 ng/mL. For the same compound, the concentration at 8 h [2, 13] was 9.1 ng/mL, the concentration at 8 h [2, 14] was 5.6 ng/mL and the AUC(0-t) [2, 15] was 3030 ng·h/mL. The Cmax [2, 15] was 2600 ng/mL, the AUC(0-inf) [2, 15] was 3040 ng·h/mL and the clearance [2, 15] was 5.5 mL/min/kg. The MRT inf [2, 15] was 1.18 h, the Vd [2, 15] was 0.48 L/kg and the AUC(0-t) [2, 16] was 3090 ng·h/mL. The Cmax [2, 16] was 2720 ng/mL, the AUC(0-inf) [2, 16] was 3100 ng·h/mL and the clearance [2, 16] was 5.33 mL/min/kg. The MRT inf [2, 16] was 1.17 h, the Vd [2, 16] was 0.49 L/kg and the AUC(0-t) [2, 17] was 2740 ng·h/mL. The Cmax [2, 17] was 2400 ng/mL, the AUC(0-inf) [2, 17] was 2750 ng·h/mL and the clearance [2, 17] was 6 mL/min/kg. It also gave an MRT inf [2, 17] of 1.16 h, a Vd [2, 17] of 0.53 L/kg and an AUC(0-t) [2, 18] of 3270 ng·h/mL. It also gave a Cmax [2, 18] of 2690 ng/mL, an AUC(0-inf) [2, 18] of 3280 ng·h/mL and a clearance [2, 18] of 5 mL/min/kg. For the same compound, the MRT inf [2, 18] was 1.21 h, the Vd [2, 18] was 0.41 L/kg and the concentration at 2 h [2, 19] was 920 ng/mL. For the same compound, the concentration at 2 h [2, 20] was 675 ng/mL, the concentration at 2 h [2, 21] was 1280 ng/mL and the concentration at 2 h [2, 22] was 801 ng/mL. For the same compound, the concentration at 4 h [2, 19] was 1280 ng/mL, the concentration at 4 h [2, 20] was 1310 ng/mL and the concentration at 4 h [2, 21] was 1720 ng/mL. It also gave a concentration at 4 h [2, 22] of 814 ng/mL, a concentration at 8 h [2, 20] of 451 ng/mL and an AUC(0-t) [2, 23] of 12400 ng·h/mL. For the same compound, the Cmax [2, 23] was 1280 ng/mL, the AUC(0-inf) [2, 23] was 12600 ng·h/mL and the MRT inf [2, 23] was 6.14 h. It also gave a Vd/F [2, 23] of 4.57 L/kg, an AUC(0-t) [2, 24] of 10700 ng·h/mL and a Cmax [2, 24] of 1310 ng/mL. It also gave an AUC(0-inf) [2, 24] of 10900 ng·h/mL, an MRT inf [2, 24] of 6.58 h and a Vd/F [2, 24] of 5.74 L/kg. It also gave an AUC(0-t) [2, 25] of 17700 ng·h/mL, a Cmax [2, 25] of 1720 ng/mL and an AUC(0-inf) [2, 25] of 17800 ng·h/mL. The MRT inf [2, 25] was 5.87 h, the Vd/F [2, 25] was 2.4 L/kg and the AUC(0-t) [2, 26] was 9000 ng·h/mL. The Cmax [2, 26] was 814 ng/mL, the AUC(0-inf) [2, 26] was 9080 ng·h/mL and the MRT inf [2, 26] was 5.96 h. It also gave a Vd/F [2, 26] of 5.57 L/kg, a Tmax [2, 7] of 0.08 h and a Tmax [2, 8] of 4 h.
